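Values below derive from 48-hour exposures of cells grown in 96-well plates, with endpoints linearly interpolated between the two concentrations bracketing the appropriate inhibition level. GI50 = concentration required for 50% inhibition of growth.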 Activity calls are given as the source filed them. No stated cut-off is given here; in the data, active = GI50 up to about 1.1 µM and inactive = higher. Where only a bound is given, the exact number is not on record here.

Among the test systems are 786-0; A549; BT-549; CAKI-1; CCRF-CEM; DU-145; HCC 2998; LOX IMVI; MOLT-4; PC-3; RPMI-8226; SF-295; SK-MEL-28; SK-MEL-5; SK-OV-3; T47D; U-251; UACC-257; UO-31; HOP-92.
Experiment in all cases: NCI tumour cell line growth inhibition, 48 h

`CCOC(=O)C(=CN1CCNC1=S)C(=O)OCC`: the GI50 with 786-0, with A549, in the experiment with BT-549, in the experiment on CAKI-1, with CCRF-CEM and in the experiment with DU-145 was > 100 µM (inactive) throughout. Also, the GI50 in the experiment with HCC 2998, in the experiment on LOX IMVI, with MOLT-4, in the experiment with PC-3, in the experiment with RPMI-8226 and in the experiment on SF-295 was > 100 µM (inactive) each time. In addition, the GI50 in the experiment on SK-MEL-28, in the experiment with SK-MEL-5, with SK-OV-3, in the experiment on T47D, in the experiment with U-251 and in the experiment on UACC-257 was > 100 µM (inactive) throughout.
As to `c1ccc2c(c1)Nc1c3ccccc3nc3cccc-2c13`, the GI50 is 0.638 µM (active) in the experiment with 786-0; 1.05 µM (active) with A549; 7.43 µM (inactive) in the experiment with BT-549; 1.08 µM (active) with CAKI-1; 0.305 µM (active) with CCRF-CEM; 1.48 µM (inactive) in the experiment with DU-145. Also, the GI50 with HCC 2998 is 1.02 µM (active); in the experiment on LOX IMVI, 0.877 µM (active); in the experiment on MOLT-4 it was 0.157 µM (active); with PC-3, 0.968 µM (active); with RPMI-8226 it was 0.587 µM (active); with SF-295, 1.17 µM (inactive). Also, the GI50 with SK-MEL-28 was 1.71 µM (inactive); in the experiment on SK-MEL-5, 1.42 µM (inactive); with SK-OV-3, 1.35 µM (inactive); in the experiment with T47D, 2.06 µM (inactive); with U-251, 0.998 µM (active); in the experiment on UACC-257 it was 1.73 µM (inactive). Also, the GI50 in the experiment with UO-31 was 1.36 µM (inactive).
In the case of `O=C1CCC2(CCO1)OCCO2`, the GI50 with 786-0, with A549, in the experiment with BT-549, with CAKI-1, with CCRF-CEM and with DU-145 was > 100 µM (inactive) each time. In addition, the GI50 in the experiment with HCC 2998, in the experiment with LOX IMVI, in the experiment on MOLT-4, in the experiment on PC-3, in the experiment on SF-295 and with SK-MEL-28 was > 100 µM (inactive) throughout. Besides, the GI50 in the experiment on SK-MEL-5, in the experiment on SK-OV-3, with T47D, in the experiment with U-251, in the experiment on UACC-257 and in the experiment with UO-31 was > 100 µM (inactive) in each case.
With `Cc1ccc2c(=O)c(-c3nnc(NC4CCCCC4)s3)c[nH]c2n1`, the GI50 in the experiment on 786-0, with A549, with BT-549, in the experiment with CAKI-1, in the experiment with CCRF-CEM and with DU-145 was > 100 µM (inactive) in each case. Further, the GI50 was > 100 µM (inactive) in the experiment on LOX IMVI; 61 µM (inactive) with MOLT-4; > 100 µM (inactive) in the experiment on PC-3; > 100 µM (inactive) with RPMI-8226; 81.7 µM (inactive) in the experiment with SF-295; > 100 µM (inactive) in the experiment with SK-MEL-28. For the same compound, the GI50 in the experiment on SK-MEL-5 is 40.9 µM (inactive); in the experiment on T47D, 50 µM (inactive); in the experiment on U-251 it was > 100 µM (inactive); in the experiment on UACC-257 it was > 100 µM (inactive); in the experiment with UO-31, > 100 µM (inactive).
On to `O=C1/C(=C/c2cccc(F)c2)CCCc2ccccc21`, for which the GI50 was 17.2 µM (inactive) in the experiment on 786-0; 17.7 µM (inactive) in the experiment with A549; 17.6 µM (inactive) with BT-549; 17.7 µM (inactive) with CAKI-1; 15.5 µM (inactive) in the experiment on CCRF-CEM; 16.9 µM (inactive) in the experiment with DU-145. Also, the GI50 with HCC 2998 was 14.7 µM (inactive); with HOP-92, 15.8 µM (inactive); in the experiment on LOX IMVI it was 16.5 µM (inactive); in the experiment on MOLT-4, 17.7 µM (inactive); in the experiment on PC-3 it was 15.7 µM (inactive); in the experiment on RPMI-8226 it was 14.9 µM (inactive). The GI50 in the experiment on SF-295 is 16.1 µM (inactive); with SK-MEL-28, 16.6 µM (inactive); in the experiment with SK-OV-3, 27.2 µM (inactive); in the experiment on U-251 it was 16.2 µM (inactive); in the experiment on UACC-257 it was 16.9 µM (inactive); with UO-31, 16.3 µM (inactive).
As for `CCc1n[nH]c(=O)n1N1C(=O)CCC1=O`, the GI50 in the experiment on 786-0, in the experiment with A549, in the experiment with BT-549, in the experiment on CAKI-1, in the experiment on CCRF-CEM and with DU-145 was > 100 µM (inactive) each time. Also, the GI50 in the experiment with HCC 2998, in the experiment with LOX IMVI, with MOLT-4, in the experiment with PC-3, in the experiment with RPMI-8226 and in the experiment on SF-295 was > 100 µM (inactive) each time. Besides, the GI50 with SK-MEL-28, with SK-MEL-5, in the experiment on SK-OV-3, in the experiment on T47D, with U-251 and with UACC-257 was > 100 µM (inactive) in each case. In the experiment on UO-31, the GI50 is > 100 µM (inactive).
`C1=N\CCNCCNCC/N=C\c2ccc(cc2)OCc2cccc(n2)COc2ccc/1cc2`: the GI50 with 786-0 is > 100 µM (inactive); in the experiment with A549, > 100 µM (inactive); with BT-549, > 100 µM (inactive); in the experiment with CAKI-1 it was > 100 µM (inactive); with CCRF-CEM it was 27.6 µM (inactive); with DU-145 it was > 100 µM (inactive). In addition, the GI50 in the experiment with HOP-92 was > 100 µM (inactive); with MOLT-4, 29 µM (inactive); with PC-3, 79.4 µM (inactive); with RPMI-8226, 53.6 µM (inactive); with SF-295, > 100 µM (inactive); in the experiment on SK-MEL-28 it was > 100 µM (inactive). In addition, the GI50 was 51.4 µM (inactive) in the experiment on SK-MEL-5; > 100 µM (inactive) in the experiment with SK-OV-3; 53.3 µM (inactive) in the experiment on T47D; > 100 µM (inactive) with U-251; 88.5 µM (inactive) with UACC-257; > 100 µM (inactive) in the experiment with UO-31.
As for `COc1ccc2c(c1)N=C1CSC(c3c(Cl)cccc3[N+](=O)[O-])N1C2` (stereo not given), the GI50 in the experiment with 786-0 is 51.5 µM (inactive); with A549 it was 42.8 µM (inactive); with BT-549, 24.7 µM (inactive); with CAKI-1, 37.8 µM (inactive); with HCC 2998, 21.4 µM (inactive); in the experiment on HOP-92, 40 µM (inactive). The GI50 in the experiment with LOX IMVI was 35.5 µM (inactive); with MOLT-4, 20 µM (inactive); in the experiment on PC-3, 40.6 µM (inactive); in the experiment on RPMI-8226 it was 30 µM (inactive); in the experiment on SF-295, 40.6 µM (inactive); in the experiment with SK-MEL-28 it was 20.5 µM (inactive). Besides, the GI50 in the experiment with SK-MEL-5 is 19.4 µM (inactive); with SK-OV-3, > 100 µM (inactive); in the experiment with T47D, 49 µM (inactive); with U-251 it was 54.2 µM (inactive); in the experiment on UACC-257 it was 27 µM (inactive); in the experiment with UO-31, 30.8 µM (inactive).

These data come from ChEMBL document CHEMBL1201862, “PubChem BioAssay data set” (2004).
